Test results taken from patent US4172829A, “2,9-Disubstituted adenine derivatives and their use as non-adrenergic bronchodilators” (Bristol-Myers Company, priority 1978, dated 1979).
≈ marks a conversion by molar mass, not a printed value.

Experiments:
platelet aggregation = conditions: Chem Pharm. Bull., 25(7), 1811-1821 (1977); cited from earlier work
[1] = tested on: intratracheal pressure (ITP) of guinea pig; assay: In vivo bronchodilator activity, intratracheal pressure test (ITP); conditions: Cavia porcellus, 50% decrease in intratracheal pressure
Protocol: (§1) The trachea of anesthetized guinea pig was cannulated and the ITP recorded on a polygraph under artificial ventilation. Arterial blood pressure (ABP; measure of hypotensive activity) was also measured during the experiment. Data was obtained for both intravenous and intraduodenal administration.

[2] = tested on: Arterial blood pressure (ABP); assay: In vivo hypotensive activity, arterial blood pressure (ABP); set-up: species or system guinea pig; conditions: arterial blood pressure lowering, ED20, reduces ABP by 20%
Protocol: as §1, with “Pharmac., 21, 379 (1969). The” for “The”

[3] = tested on: Tracheal chains of guinea pig; assay: In vitro bronchodilator activity, isolated tracheal chain (ITC); format: cell-based; conditions: Cavia porcellus, relaxation 50% of the maximum response to 0.1 mcg./ml. of isoproterenol
Protocol: Tracheal chains of guinea pig were prepared by the method described by A. Akcasu in Arch. Int. Pharmacodyn. Ther., 122, 201 (1959). The response to each test compound was recorded by the Magnus method and expressed as a percentage of the maximum response obtained with 0.1 mcg./ml. of isoproterenol prior to each experiment.

[4] = Separation of bronchodilator and cardiovascular effects (ABP/ITP); conditions: guinea pig, in vivo, ratio of hypotensive ED20 / bronchodilating ED50
Protocol: To assess the separation of desirable bronchodilator activity from undesirable cardiovascular (hypotensive) effect in the test compounds, the ratio of hypotensive ED20 /bronchodilating ED50 was calculated and indicated in Table 1.

bronchial constriction = conditions: prior art; bronchial asthma; cited from earlier work
[5] = prior art; cited from earlier work
[6] = known disadvantages, prior art; cited from earlier work

Structure (SMILES) | inhibition of platelet aggregation (in words) (platelet aggregation) | ED50 ([1]; intravenous) [mg/kg] | ED20 ([2]; intravenous) [mg/kg] | EC50 [3] [µg/mL] | selectivity ratio ([4]; intravenous) | ED50 ([1]; intraduodenal) [mg/kg] | ED20 ([2]; intraduodenal) [mg/kg] | selectivity ratio ([4]; intraduodenal) | bronchodilator activity (in words) (bronchial constriction) | solubility (in words) [5] | side effects (in words) [6]
Nc1nc(SC2CCCC2)nc2c1ncn2C1CCCC1 | slightly effective |  |  |  |  |  |  |  |  |  | 
CCOc1nc(N)c2ncn(C3CCCCC3)c2n1 [C2 H5 O / drawing 30, 2-Ethoxy-9-cyclohexyl-9H-adenine] |  | 0.37 | 2.5 | 0.18 (≈ 0.689 µM) | 6.8 |  |  |  |  |  | 
CCOc1nc(N)c2ncn(C3C=CCCC3)c2n1 (stereo not shown) [C2 H5 O / drawing 31, 9-(2-Cyclohexenyl)-2-ethoxy-9H-adenine] |  | 0.33 | 4.0 | 0.088 (≈ 0.339 µM) | 12 | 0.62 | 12 | 19 |  |  | 
Nc1nc(Cl)nc2c1ncn2C1C=CCCC1 (stereo not shown) [Cl / drawing 31, 2-Chloro-9-(2-cyclohexenyl)-9H-adenine] |  | 0.15 | 2.5 | 0.12 (≈ 0.481 µM) | 17 |  |  |  |  |  | 
Cn1c(=O)c2[nH]cnc2n(C)c1=O [Theophylline] |  |  |  |  |  |  |  |  | potent and useful non-adrenergic bronchodilator |  | 
Cn1c(=O)c2[nH]cnc2n(C)c1=O [aminophylline] |  |  |  | 16.6 (≈ 92.1 µM) |  |  |  |  | effective bronchodilator when given orally | readily soluble | gastric irritation and cardiovascular and central nervous system side effects
CC(C)COc1nc(N)c2ncn(C3CCCCC3)c2n1 [isO-C4 H9 O / drawing 30, 2-Isobutoxy-9-cyclohexyl-9H-adenine] |  | > 3 | > 3 | 0.31 (≈ 1.07 µM) |  |  |  |  |  |  | 
CC(C)COc1nc(N)c2ncn(C3C=CCCC3)c2n1 (stereo not shown) [iso-C4 H9 O / drawing 31, 9-(2-Cyclohexenyl)-2-isobutoxy-9H-adenine] |  | > 3 | 2.4 | 0.41 (≈ 1.43 µM) |  |  |  |  |  |  | 
CCCOc1nc(N)c2ncn(C3CCCCC3)c2n1 [n-C3 H7 O / drawing 30, 9-Cyclohexyl-2-n-propoxy-9H-adenine] |  | 0.37 | 4.4 | 0.026 (≈ 0.0944 µM) | 12 | 1.2 | 18 | 15 |  |  | 
CCCOc1nc(N)c2ncn(C3C=CCCC3)c2n1 (stereo not shown) [n-C3 H7 O / drawing 31, 9-(2-Cyclohexenyl)-2-n-propoxy-9H-adenine] |  | 0.34 | 2.0 | 0.027 (≈ 0.0988 µM) | 5.9 | 1.2 | 2.4 | 2 |  |  | 
CCCCOc1nc(N)c2ncn(C3CCCCC3)c2n1 [n-C4 H9 O / drawing 30, 2-n-Butoxy-9-cyclohexyl-9H-adenine] |  | 0.003 | 4.4 | 0.025 (≈ 0.0864 µM) | 1470 | 1.4 | 8.3 | 5.9 |  |  | 
CCCCOc1nc(N)c2ncn(C3C=CCCC3)c2n1 (stereo not shown) [n-C4 H9 O / drawing 31, 9-(2-Cyclohexenyl)-2-n-butoxy-9H-adenine] |  | 0.65 | > 3 | 0.045 (≈ 0.157 µM) | > 4.8 |  |  |  |  |  | 
CCCCCOc1nc(N)c2ncn(C3CCCCC3)c2n1 [n-C5 H11 O / drawing 30, 2-n-Pentyloxy-9-cyclohexyl-9H-adenine] |  | > 3 | > 3 | 1.8 (≈ 5.93 µM) |  |  |  |  |  |  | 
CCCCCOc1nc(N)c2ncn(C3C=CCCC3)c2n1 (stereo not shown) [n-C5 H11 O / drawing 31, 9-(2-Cyclohexenyl)-2-n-pentyloxy-9H-adenine] |  | > 3 | > 3 | 0.59 (≈ 1.96 µM) |  |  |  |  |  |  | 
CCCCCCOc1nc(N)c2ncn(C3CCCCC3)c2n1 [n-C6 H13 O / drawing 30, 2-n-Hexyloxy-9-cyclohexyl-9H-adenine] |  | > 3 | > 3 | 1.4 (≈ 4.41 µM) |  |  |  |  |  |  | 
CCCCCCOc1nc(N)c2ncn(C3C=CCCC3)c2n1 (stereo not shown) [n-C6 H13 O / drawing 31, 9-(2-Cyclohexenyl)-2-n-hexyloxy-9H-adenine] |  | > 3 | 2.7 | > 3 |  |  |  |  |  |  | 
